{"source": "ChEMBL document CHEMBL1159121", "about": "“Synthesis, in vitro structure-activity relationship, and in vivo studies of 2-arylthiazolidine-4-carboxylic acid amides as anticancer agents” (Bioorg Med Chem, 2010)", "type_in_all_cases": "functional", "key": {"MCF7": {"test_system": "MCF7", "experiment": "Growth inhibition of human MCF7 cells"}, "KM12": {"test_system": "KM12", "experiment": "Growth inhibition of human KM12 cells"}, "MDA-MB-468": {"test_system": "MDA-MB-468", "experiment": "Growth inhibition of human MDA-MB-468 cells"}, "[1]": {"settings": "read-out: LC50 (the source's name)"}}}
{"smiles": "CCCCCCCCCCCCCCCCNC(=O)[C@@H]1CSC(c2ccc(NC(C)=O)cc2)N1", "note": "(mixture of isomers)", "values": [{"measurement": "GI50", "setting": "MCF7", "result": 190, "unit": "nM"}, {"measurement": "TGI", "setting": "MCF7", "result": 380, "unit": "nM"}, {"measurement": "CC50", "setting": "MCF7; [1]", "result": 800, "unit": "nM"}, {"measurement": "GI50", "setting": "KM12", "result": 180, "unit": "nM"}, {"measurement": "TGI", "setting": "KM12", "result": 330, "unit": "nM"}, {"measurement": "CC50", "setting": "KM12; [1]", "result": 580, "unit": "nM"}, {"measurement": "GI50", "setting": "MDA-MB-468", "result": 220, "unit": "nM"}, {"measurement": "TGI", "setting": "MDA-MB-468", "result": 510, "unit": "nM"}, {"measurement": "CC50", "setting": "MDA-MB-468; [1]", "result": 1540, "unit": "nM"}]}
